Results taken from patent US12551447B2, “Combination solid oral dosage forms of gonadotropin-releasing hormone antagonists” (Sumitomo Pharma Co., Ltd., priority 2020, dated 2026).

Assay: BioPharmaceutical Classification System (BCS) solubility and permeability class
Assay type: physicochemical
Details: BCS 4 = poorly soluble and poor permeability
Description: The BioPharmaceutical Classification System (BCS) classifies drug substances as to their solubility and permeability. For example, a drug substance is considered highly soluble when the highest dose strength is soluble in ≤250 ml water over a pH range of 1-7, and highly permeable when the extent of absorption in humans is determined to be >90% of an administered dose, in comparison to an intravenous reference dose. A BCS 1 compound is highly soluble and highly permeable, while a BCS 4 compound is poorly soluble and has poor permeability. For BCS 4 compounds, bioavailability and the pharmacokinetic (PK) profile or parameters, such as mean maximum plasma concentration (Cmax), mean time to maximum plasma concentration (Tmax) and mean area under the plasma concentration vs. time curve (AUC) after oral administration, can be positively or negatively impacted by the formulation, the type of the excipients selected and the specific excipients. The safety and efficacy of the fixed combination oral product depends on these PK parameters being in the appropriate range. Compound 1 is a BCS 4 compound and therefore for fixed combination oral products having compound 1, or a corresponding amount of a pharmaceutically acceptable salt thereof, the type and specifics of the excipients must be carefully selected so as to achieve the target pharmacokinetic parameters.

Compound: CONC(=O)Nc1ccc(-c2sc3c(c2CN(C)C)c(=O)n(-c2ccc(OC)nn2)c(=O)n3Cc2c(F)cccc2F)cc1 [Compound 1, N-(4-(1-(2,6-difluorobenzyl)-5-((dimethylamino)methyl)-3-(6-methoxy-3-pyr-idazinyl)-2,4-dioxo-1,2,3,4-tetrahydrothieno[2,3-d]pyrimidin-6-yl)phenyl)-N′-methoxyurea]
- BCS class: BCS 4
